This note sets out measurements from patent publication US9266834B2, “1, 4-disubstituted 3-cyano-pyridone derivatives and their use as positive allosteric modulators of MGLUR2-receptors” (JANSSEN PHARMACEUTICALS, INC., priority 2006, dated 2016).

One may read the melting point as the temperature of the solid-liquid transition.

Molecules are shown by their SMILES.

The target in one data set is T1, human mGluR2 receptor (Homo sapiens, UniProt Q14416).
T1 construct: expressed in transfected cells; host or cells: CHO cells (membrane preparation)
As to the kind of experiment: [35S]GTPγS binding assay (GTPγS-PAM): positive allosteric modulation in presence of glutamate at EC25, membranes from transfected CHO cells. As to conditions: in presence of mGluR2 agonist glutamate at predetermined EC25 concentration, averages of duplicate values of 11-concentration response curves; for EC50: read-out: GTPgS - hR2 PAM pEC50 (converted). It counts as biochemical. Summed up: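 Membranes came from butyrate-stimulated CHO cells expressing human mGluR2, used at 15 μg/well in HEPES pH 7.4 with 100 mM NaCl, 3 mM MgCl2, 50 μM GDP and saponin. Compound (0.3 nM-50 μM, 11 concentrations) plus glutamate at EC25 was preincubated 30 min at 30° C., then 0.1 nM [35S]GTPγS was added for 30 min. Filter-bound radioactivity was counted, nonspecific binding was taken with 10 μM GTP, and curves were fitted by four-parameter logistic.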
(Binding of GTPγS marks nucleotide exchange on a G protein.)

T1 sequence (Q14416 19-872): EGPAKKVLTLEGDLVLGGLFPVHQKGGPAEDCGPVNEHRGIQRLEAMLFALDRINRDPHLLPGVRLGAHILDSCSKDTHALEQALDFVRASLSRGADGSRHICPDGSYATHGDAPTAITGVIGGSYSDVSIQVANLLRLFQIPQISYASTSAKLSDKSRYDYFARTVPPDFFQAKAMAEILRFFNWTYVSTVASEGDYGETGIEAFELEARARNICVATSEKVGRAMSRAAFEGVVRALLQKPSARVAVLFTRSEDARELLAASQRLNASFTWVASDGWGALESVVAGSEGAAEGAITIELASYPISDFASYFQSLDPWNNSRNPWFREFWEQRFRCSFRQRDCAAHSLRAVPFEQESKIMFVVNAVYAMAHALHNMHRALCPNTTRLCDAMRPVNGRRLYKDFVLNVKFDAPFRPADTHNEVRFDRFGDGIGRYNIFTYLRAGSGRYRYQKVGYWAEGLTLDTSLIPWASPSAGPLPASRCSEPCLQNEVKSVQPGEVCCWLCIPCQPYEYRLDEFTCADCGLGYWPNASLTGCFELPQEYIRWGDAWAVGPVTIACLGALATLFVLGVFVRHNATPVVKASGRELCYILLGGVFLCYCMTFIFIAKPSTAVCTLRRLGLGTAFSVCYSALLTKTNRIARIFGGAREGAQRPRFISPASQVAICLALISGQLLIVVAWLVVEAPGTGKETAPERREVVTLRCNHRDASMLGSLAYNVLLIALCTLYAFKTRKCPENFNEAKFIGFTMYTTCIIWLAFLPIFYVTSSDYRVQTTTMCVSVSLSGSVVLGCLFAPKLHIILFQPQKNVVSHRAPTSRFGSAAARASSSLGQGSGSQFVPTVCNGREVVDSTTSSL

For `N#Cc1c(-c2cccs2)ccn(Cc2ccc(C(F)(F)F)nc2)c1=O` [1-046], the melting point was found to be 185 °C. Besides, the EC50 on human mGluR2 receptor was 1260 nM.

Compound `COc1ccc(-c2ccn(CCOc3ccccc3)c(=O)c2C#N)cc1` [1-048] registered a melting point of 188 °C. In addition, on human mGluR2 receptor, the EC50 was 1000 nM.

Compound `N#Cc1c(-c2cccs2)ccn(CCCc2ccccc2)c1=O` [1-052] had a melting point of 118 °C. In addition, the EC50 at human mGluR2 receptor is 2000 nM.

With `CCCCn1ccc(-c2ccc(OC(F)(F)F)cc2)c(C#N)c1=O` [1-055], the melting point was determined as 123 °C. For the same compound, the EC50 on human mGluR2 receptor was 1260 nM.

For `CCCCn1ccc(-c2ccc(N3CCCCC3)cc2)c(C#N)c1=O` [1-058], the melting point was 122 °C. Moreover, the EC50 at human mGluR2 receptor is 316 nM.

On to `CCCCn1ccc(-c2cccs2)c(C#N)c1=O` [1-059], for which the melting point came out at 103 °C. The EC50 on human mGluR2 receptor is 5010 nM.

`CCCCn1ccc(-c2ccc(OCc3cccc(C)n3)cc2)c(C#N)c1=O` [1-063] showed a melting point of 102 °C. The EC50 on human mGluR2 receptor was 1000 nM.

For `CC(C)Cn1ccc(-c2cccs2)c(C#N)c1=O` [1-077], the melting point was 108 °C. Also, the EC50 on human mGluR2 receptor was 3980 nM.

For `CC(C)Cn1ccc(-c2ccc(Oc3ccncc3)cc2)c(C#N)c1=O` [1-078], the melting point was 170 °C. For the same compound, the EC50 on human mGluR2 receptor was 3980 nM.

Turning to `CCCC(C)n1ccc(-c2cccs2)c(C#N)c1=O` (centres unmarked) [1-079], the melting point amounted to 103 °C. Further, the EC50 at human mGluR2 receptor was 5010 nM.

In turn, `CC(C)CCn1ccc(-c2cccs2)c(C#N)c1=O` [1-082] gave a melting point of 123 °C. Besides, at human mGluR2 receptor, the EC50 is 2000 nM.

As to `Cc1ccc(-c2ccn(CCC(C)C)c(=O)c2C#N)cc1` [1-085], the melting point was found to be 102 °C. In addition, on human mGluR2 receptor, the EC50 was 794 nM.

As to `CC(C)CCn1ccc(-c2ccc(C(C)(C)C)cc2)c(C#N)c1=O` [1-086], the melting point stood at 168 °C. In addition, the EC50 on human mGluR2 receptor is 63.1 nM.

As to `CC(C)CCn1ccc(-c2ccccc2F)c(C#N)c1=O` [1-087], the melting point was found to be 125 °C. Moreover, the EC50 on human mGluR2 receptor is 3980 nM.

The compound `CC(C)CCn1ccc(-c2cccc(F)c2)c(C#N)c1=O` [1-088] registered a melting point of 161 °C. The EC50 on human mGluR2 receptor was 2510 nM.

For `CC(C)CCn1ccc(-c2cccc(Cl)c2)c(C#N)c1=O` [1-090], the melting point amounted to 123 °C. Also, on human mGluR2 receptor, the EC50 is 794 nM.

In turn, `CC(C)CCn1ccc(-c2ccc(Cl)cc2)c(C#N)c1=O` [1-091] displayed a melting point of 137 °C. Further, the EC50 on human mGluR2 receptor is 1580 nM.

Take `CC(C)CCn1ccc(-c2ccc(-c3ccccc3)cc2)c(C#N)c1=O` [1-093]: the melting point was found to be 172 °C. Further, the EC50 at human mGluR2 receptor is 25.1 nM.

Take `CC(C)CCn1ccc(-c2cccc(-c3ccccc3)c2)c(C#N)c1=O` [1-094]: the melting point is 131 °C. Besides, the EC50 on human mGluR2 receptor is 501 nM.

Consider `CC(C)CCn1ccc(-c2ccc(CCCO)cc2)c(C#N)c1=O` [1-095, 3-cyano-4-(4-hydroxypropylphenyl)-1-(3-methylbutyl)pyridine-2(1H)-one], for which the melting point is 85 °C. Further, the EC50 on human mGluR2 receptor was 631 nM.

In the case of `CC(C)CCn1ccc(-c2cccc(O)c2)c(C#N)c1=O` [1-096], the melting point was 201 °C. Further, on human mGluR2 receptor, the EC50 is 1580 nM.

Regarding `CC(C)CCn1ccc(-c2ccc(O)cc2)c(C#N)c1=O` [1-097], the melting point was 210 °C. Besides, the EC50 on human mGluR2 receptor was 1580 nM.

Consider `COc1cccc(-c2ccn(CCC(C)C)c(=O)c2C#N)c1` [1-101], for which the melting point came out at 96 °C. At human mGluR2 receptor, the “GTPgS - hR2 PAM pEC50” value came to 5.5.

For the compound `COCc1ccc(-c2ccn(CCC(C)C)c(=O)c2C#N)cc1` [1-103, 3-cyano-4-(4-methoxymethylphenyl)-1-(3-methylbutyl)pyridine-2(1H)-one], the melting point turned out to be 91 °C. Also, the EC50 at human mGluR2 receptor was 2000 nM.

Consider `CCCOc1ccc(-c2ccn(CCC(C)C)c(=O)c2C#N)cc1` [1-105], for which the melting point is 107 °C. The EC50 on human mGluR2 receptor is 398 nM.
